Reference: patent US6596863B2, “Medical composition containing nitroetheneamine Derivative or salt there of as active constituent” (Ishihara Sangyo Kaisha, Ltd., priority 1998, dated 2003)
Like-named read-outs stand apart in the source and are kept apart here. Marks after values point to notes of the source that are not given here.

What was measured:
human MMP-3 = target: T1, human MMP-3 (Homo sapiens, UniProt P08254); experiment: Enzyme inhibition activity against MMP-3 (stromelysin-1), fluorescent peptide substrate NFF-3; type: biochemical; conditions: human MMP-3, substrate NFF-3, 37° C. for 2 hours
T1 construct: purchased Kabushiki Kaisha Yagai Chuo Kenkyusho YU-26003
Description: The inhibition activity against human MMP-3 was measured using a fluorescent peptide substrate MOCAc-Arg-Pro-Lys-Pro-Val-Glu-Nva-Trp—Arg-Lys(Dnp)-NH2[NFF-3, manufactured by Peptide Institute, Inc. (No. 3168-v)] with reference to the method disclosed in a literature (Knight C. G. et al, FEBS Letters, Vol. 296, 263-266, 1992, Nagase H. et al, Journal of Biological Chemistry, Vol. 269, 20952-20957, 1994). Namely, into each well of a Fluoro Nunc plate (96C) white (No. 437842, manufactured by Nunc Co.), 180 μl of a MMP-3 solution (0.0125 unit/ml; No. YU-26003, manufactured by Kabushiki Kaisha Yagai Chuo Kenkyusho, purity: at least 99%), 10 μl of a test materials (the compound of the present invention) dissolved in DMSO and 10 μl of a peptide substrate […] (final concentration: 10 μM) were added and maintained at 37° C. for 2 hours in a dark place. Dilution of the enzyme was carried out by using 50 mM of Tris-HCl (pH 7.5) comprising 0.1M of NaCl, 10 mM of CaCl2, 0.05% Brij 35 and 0.02% of NaN3.
For the MMP-3 enzymatic activity, the amount of the decomposition product after the reaction was quantitatively analyzed as the change in the relative fluorescence intensity at a fluorescence wavelength of 400 nm with an excitation wavelength of 326 nm (using a variable fluorescence plate reader (variable wavelength type) Spectron FL-2575, manufactured by Towa Kagaku K. K.), and the inhibition activity of the test materials against the enzymatic activity was calculated by comparing the relative fluorescence intensities of the inhibitor added group and the non-added group after completion of the reaction.

[1] = test system: CPAE cells (bovine pulmonary-derived vascular endothelical cells); experiment: Inhibitory action against capillary-like tube formation of vascular endothelial cells, three dimensional collagen gel culture; type: cell-based; conditions: for Number of networks Average ± SD: n = 5, Day 4
Description: With reference to the method disclosed in a literature (Hayashi, J. N. et al, Virchows arch. (B), Vol. 60,245-252, 1991, Lee, D. Y. et al, Life Science, Vol. 60, 127-134, 1997), evaluation was carried out by the following method.
7 Parts by volume of type I-a collagen (manufactured by Nitta Gelatin K. K.) and 2 parts by volume of Dulbecco's Modified Eagle Medium (concentration: 5 times, containing no NaHCO3; No. D-5648, manufactured by Sigma Co.) were thoroughly mixed under cooling with ice, and then one part by volume of a collagen gel-reconstructing buffer solution (2.2% NaHCO3/0.2M HEPES/0.05N NaOH) was added thereto. To withdraw bubbles, centrifugal separation and supersonic treatment were carried out, and then 400 μl of the gel was introduced into 24 well multi-well plate (Code 3047, manufactured by Falcon Co.) and incubated at 37° C. for about 10 minutes for gelation.
On the gelled collagen, CPAE cells (bovine pulmonary-derived vascular endothelical cells; ATCC CCL209, purchased from Dainippon Seiyaku K. K.) was inoculated in a concentration of 4×10^4 cells/400 μl/well (Day 0). Thereafter the cells were cultured overnight at 37° C. in a 5% CO2 incubator. Next day (Day 1), after confirming that the cells were normally proliferating, the culture solution was removed by aspiration, and a fresh collagen gel (prepared in the same manner as the above layer) was overlaid in an amount of 200 μl/well and gelled.
On the gel, the test materials dissolved in 10% fetal bovine serum-containing Dulbecco's Modified Eagle Medium (No. D-5648, manufactured by Sigma Co.) (prepared to have a concentration four times the final concentration) was added in an amount of 200 μl, and culturing was continued under the same conditions. Upon expiration of three days from stratification (Day 4), capillary-like tube formation was observed by a microscope, and an optional field of view was photographed with 100 magnifications, whereupon the number of capillary-like structures formed (the number of networks) were visually counted with reference to the method disclosed in a literature by Yeong, H. et al (Cancer Research, Vol. 56, 2428-2433, 1996). For each test sample, 2 well treatment was carried out, and a total of five fields of view were photographed for evaluation.

[2] = test system: Meth A/AD cells (mouse fibrosarcoma); type: in vivo; design: Tumor volume (Day 22) Average ± standard deviation / Tumor growth inhibition ratio (%) / Tumor volume (Day 24) Average ± standard deviation: dose or concentration left out as unconfirmed; conditions: for inhibition ratio of tumor growth of Meth A/AD: intraperitoneal administration, total of 10 times, male BALB/c mouse, tumor volume vs vehicle control
Description: Meth A mouse fibrosarcoma cells intraperitoneally subcultured in mouse (supplied from Sasaki Institute) were cultured at 39° C. for 10 days in 5% CO2 (using 10% fetal bovine serum-containing RPMI culture medium (manufactured by Flow Laboratories)) and then inoculated subcutaneously to BALB/c mouse. The tumor grown for 30 days, was taken out and passed through a metal mesh to obtain single cells, which were again returned and continuously cultured in vitro (37° C.). […] On the other hand, the Meth A/AD strain always produces and secretes MMP-2 in the supernatant in in vitro culture, but when TNF-α (50 ng/ml) was added in the culture solution, it produced MMP-9 remarkably.
With reference to the method by Keneda et al (Cancer Research, Vol. 58, 290-295, 1998), the inhibitory effect on tumor growth were evaluated. Namely, 1×10^6 Meth A/AD cells cultured in vitro (suspended in 0.05 ml of a Hanks equilibrium salt solution) were intradermaly transplanted to the dosal skin of a male BALB/c AnNCrj mouse of 5 weeks old (purchased from Charles River Japan, Inc.) (Day 0). […] Compound No. 107 was suspended in a 1% Tween 80 physiological sodium chloride aqueous solution, and Compound No. 164 was dissolved in 100 mM Tris-HCl (pH 8.5)/150 mM NaCl, for administration. To the vehicle control group, the respective solvents containing no test materials were administered in the same manner. The measurement of the body weight and the observation of the general findings were carried out everyday up to Day 22 or 24, and the tumor diameters (the long diameter and the short diameter) were measured by a slide gauge every one day, and the difference in the tumor volume between the vehicle control group and the drug-treated group was evaluated. The tumor volume was calculated in accordance with the calculation formula of [(long diameter)×(short diameter)^2×½].

T1 sequence (P08254 100-477): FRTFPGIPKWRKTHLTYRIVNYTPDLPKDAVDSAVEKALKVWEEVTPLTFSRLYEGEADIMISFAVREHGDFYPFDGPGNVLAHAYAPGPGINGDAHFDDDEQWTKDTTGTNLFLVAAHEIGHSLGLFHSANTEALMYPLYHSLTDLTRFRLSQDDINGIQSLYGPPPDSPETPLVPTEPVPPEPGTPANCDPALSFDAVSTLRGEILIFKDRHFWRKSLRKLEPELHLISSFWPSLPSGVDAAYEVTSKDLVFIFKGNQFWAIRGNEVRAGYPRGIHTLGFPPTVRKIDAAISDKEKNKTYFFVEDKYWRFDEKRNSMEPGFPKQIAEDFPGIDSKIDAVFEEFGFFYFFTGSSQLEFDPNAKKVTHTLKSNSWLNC

CCOCCOc1cc(C(F)(F)F)cc(NNC(=C[N+](=O)[O-])NS(C)(=O)=O)n1 [Compound No. 164, N-(1-(6-(2-ethoxyethoxy)-4-trifluoromethyl-2-pyridyl)hydrazino-2-nitroethenyl)methanesulfonamide]
IC50 (human MMP-3): 17.8 µM | Inhibition ratio (%) against capillary-like tube formation ([1]; 0.1 μM): 23% | Number of networks Average ± SD ([1]; 0.1 μM): 23.6 ± 3.2 | Inhibition ratio (%) against capillary-like tube formation ([1]; 1 μM): 44* % | Number of networks Average ± SD ([1]; 1 μM): 17.2 ± 4.1 | Inhibition ratio (%) against capillary-like tube formation ([1]; 10 μM): 44* % | Number of networks Average ± SD ([1]; 10 μM): 17.2 ± 6.0 | Inhibition ratio (%) against capillary-like tube formation ([1]; 100 μM): 66* % | Number of networks Average ± SD ([1]; 100 μM): 10.4 ± 5.7 | inhibition ratio of tumor growth of Meth A/AD ([2]; 30 mg/kg): 49.8% | Tumor growth inhibition ratio (%) ([2]; intraperitoneal, Day 24): 49.8* % | Tumor volume (Day 24) Average ± standard deviation ([2]; intraperitoneal, Day 24, vehicle control 2045 ± 987): 1027 ± 907* mm^3

CS(=O)(=O)NC(=C[N+](=O)[O-])NNc1cc(C(F)(F)F)cc(Cl)n1 [Compound No. 157, N-(1-(6-chloro-4-trifluoromethyl-2-pyridyl)hydrazino-2-nitroethenyl)methanesulfonamide]
IC50 (human MMP-3): 24.2 µM

CCOCCOc1cc(C(F)(F)F)cc(NNC(=C[N+](=O)[O-])NC)n1 [Compound No. 107]
IC50 (human MMP-3): 22.3 µM | Inhibition ratio (%) against capillary-like tube formation ([1]; 0.1 μM): 35* % | Number of networks Average ± SD ([1]; 0.1 μM): 20.0 ± 5.7 | Inhibition ratio (%) against capillary-like tube formation ([1]; 1 μM): 41* % | Number of networks Average ± SD ([1]; 1 μM): 18.2 ± 1.6 | Inhibition ratio (%) against capillary-like tube formation ([1]; 10 μM): 62* % | Number of networks Average ± SD ([1]; 10 μM): 11.8 ± 5.0 | Inhibition ratio (%) against capillary-like tube formation ([1]; 100 μM): 93* % | Number of networks Average ± SD ([1]; 100 μM): 2.0 ± 2.8 | inhibition ratio of tumor growth of Meth A/AD ([2]; 100 mg/kg): 63.5% | Tumor growth inhibition ratio (%) ([2]; intraperitoneal, Day 22): 63.5* % | Tumor volume (Day 22) Average ± standard deviation ([2]; intraperitoneal, Day 22, vehicle control 1058 ± 556): 386 ± 275* mm^3
